Data published in patent publication EP4692089A1, “NITROGEN-CONTAINING HETEROCYCLIC COMPOUND AS AAK1 INHIBITOR” (Alicorn Pharmaceutical Co., Ltd., priority 2023, dated 2024).
Values joined by “and” are separate entries in the source; they are usually repeats but may differ in a detail not shown here. Equal values may be shown once.

Assays:
[1] = Blood-brain distribution in DPNP model rats; settings: SD, rat; for concentration at 6 h: oral; for Kp at 6 h: brain/plasma, po
Procedure: Experimental objective: This experiment aims to investigate the analgesic effect of test compounds on streptozotocin (STZ)-induced peripheral neuropathic pain (DPNP) in diabetic rat models and the brain-blood distribution of the compounds associated with the efficacy, via single oral gavage (ig.) administration.
After successful modeling, the baseline plantar pain threshold of the rats was tested using the Von Frey (UP-Down method) as the baseline pain threshold before administration, and the rats were evenly grouped according to their pain thresholds. The groups included a blank control group, a model group, a positive control group (1 mg/kg), a Compound 26 (0.5 mg/kg) group, and a Compound 26 (1 mg/kg) group. The next day, the rats were administered the vehicle or corresponding drugs. At 2 h, 3 h, 4 h, 5 h, and 6 h after administration, the pain threshold of the plantar region on the affected side of rats was determined using Von Frey filaments to calculate the pain threshold improvement rate of the test compounds against neuropathic pain in diabetic rats, and to observe the time-effect relationship. After the experiment, rats from groups G3-G5 (numbers 1-3 per group) were sacrificed, and plasma and brain tissue samples were collected for testing.

[2] = test system: streptozotocin (STZ)-induced peripheral neuropathic pain (DPNP) in diabetic rat models; experiment: Efficacy test in diabetic peripheral neuropathic pain (DPNP), Von Frey pain threshold; type: in vivo, SD rats; settings: for MWT (g) After modeling: before administration; for MWT (g) 2h: 2 h after administration; for MWT (g) 4 h: 4 h after administration; for MWT (g) 5 h: 5 h after administration; for MWT (g) 6h: 6 h after administration; for duration of analgesia: time after administration
Procedure: Experimental methods: After the adaptation period, the rats were tested for baseline plantar pain threshold using the Von Frey (Up-Down method) before modeling. Subsequently, except for the blank control group, all other rats were fasted for 16 hours with free access to water and then intraperitoneally injected with streptozotocin for modeling (65 mg/kg; 2 mL/kg). One week after modeling, blood was collected from the tail tip to detect blood glucose levels after a 4-hour fast. Rats with blood glucose levels higher than 16.7 mmol/L were considered diabetic.

[3] = Pharmacokinetic test in SD rats
Procedure: Experimental objective: The objective of this experimental example is to test the pharmacokinetic profile of compounds in SD rats.
Route of administration: The animals were weighed before administration, and the dose was calculated based on their body weight. Administration was performed via intravenous injection and oral gavage.
Blood collection time points: After administration, for IV group: 0.083 h, 0.25 h, 0.5 h, 1 h, 2 h, 4 h, 8 h, and 24 h; for PO group: 0.25 h, 0.5 h, 1 h, 2 h, 4 h, 6 h, 8 h, and 24 h. Blood was collected via the jugular vein, with approximately 0.2 mL collected for each sample. The blood samples were anticoagulated with K2-EDTA and placed on ice after collection.
Plasma sample processing: After collection, the blood samples were placed on ice and centrifuged within 1 hour to separate plasma (centrifugation conditions: 6800g, 6 minutes, 2-8°C). The plasma samples were stored in a -80°C refrigerator before analysis.
Result analysis: Pharmacokinetic parameters were calculated using Phoenix WinNonlin 7.0 based on the plasma concentration data at different time points.

AAK1 = biological target: T1, AAK1 (Homo sapiens, UniProt Q2M2I8); experiment: Effect on AP2M1 phosphorylation in 293T cells co-transfected with AAK1 and AP2M1 (Western blot, anti-p-AP2M1); type: cell-based; settings: p-AP2M1 level, incubated 3 h
T1 construct: HA; expressed in transfected cells; host or cells: 293T cells
Text: Experimental objective: The objective of this test example is to determine the effect of compounds on AP2M1 phosphorylation in cells.
Background principle: Adaptor-associated kinase 1 (AAK1), also known as AP2-associated kinase 1, is a 104 kDa serine/threonine kinase. AAK1 interacts with the adaptor protein 2 (AP2) complex and phosphorylates the threonine residue in the micro-subunit of AP2 (AP2M1), thereby increasing its binding affinity for certain tyrosine-based or dileucine-based sorting signals of some membrane receptors. The inhibitory effect of compounds on AAK1 was evaluated by detecting the phosphorylation level of AP2M1 in cells, so as to screen candidate compounds.
On the second day, each T25 flask was co-transfected with 16 µg of plasmids (1 µg of AAK1/HA/pIRES and 15 µg of Flag/AP2MI/pcDNA) using a Lip2000 transfection reagent. On the third day, the cells were digested and resuspended, centrifuged at 1000 rpm for 5 minutes, and then seeded into 24-well plates at 450 µl per well (2 × 10^5 cells/well). Gradient dilutions of the compounds to be tested were prepared, 50 µl was added to each well, mixed thoroughly, and incubated at 37°C for 3 h. DMSO was set as a control, and cells without plasmid transfection were set as a blank control. After incubation, the cells were collected and washed twice with PBS. The cells were lysed on ice for 30 minutes using a cell lysis buffer containing the protease inhibitor PMSF. The concentration of protein samples was determined using a BCA kit. Protein electrophoresis: The voltage for the stacking gel was set at 60 V, and that for the separating gel was set at 120 V. After electrophoresis, electrotransfer was initiated. Electrotransfer conditions were set at 250 mA for 2 h. Blocking with 5% BSA was performed for 1 h. A specific primary antibody, anti-p-AP2M1, was added, and incubation was carried out overnight at 4°C on a shaker. Washing with TBST was conducted 4 times, with 2.5 minutes each time. A secondary antibody was incubated on a shaker at room temperature for 1 h. Washing with TBST was conducted 4 times, with 2.5 minutes each time. ECL was used for development to detect the expression level of p-AP2M1. Western blot bands were processed and converted using Image J and GraphPad software to calculate IC50.
IC50 (half maximal inhibitory concentration) refers to the half-inhibitory concentration of the measured antagonist. It can indicate the concentration of a certain drug or substance (inhibitor) that achieves half of the inhibition effect on certain biological processes (or certain substances involved in these processes, such as enzymes, cellular receptors, or microorganisms).

AAK1 (30-330) protein = biological target: T2, AAK1 (30-330) protein (Homo sapiens, UniProt Q2M2I8); experiment: AAK1 kinase assay (ADP generated, detected by HPLC); type: biochemical; settings: 3.5 nM AAK1, 22 µM ATP, 25°C, 3 h
T2 construct: (His)6x (N); TEV protease cleavage site (N); made in house; host or cells: Escherichia coli BL21(DE3)
Text: Experimental objective: The objective of this test example is to test the effect of compounds on AAK1 kinase function.
Background principle: AAK1 phosphorylates the threonine residue in the micro-subunit of AP2 (AP2M1). In this process, ATP provides phosphate groups to generate ADP. Therefore, the activity of AAK1 kinase can be evaluated by detecting the amount of ADP generated.
Expression of AAK1 (30-330) protein: The AAK1 sequence (residues 30-330) was cloned into the pET24N vector with an N-terminal (His)6x tag and a tobacco etch virus (TEV) protease cleavage site. The constructed vector was transformed into Escherichia coli BL21(DE3). When the bacteria were cultured with shaking to reach an OD value of 0.6, 1 mM IPTG was added. […] The bacterial cells were collected and subjected to ultrasonic disruption. The supernatant was obtained by centrifugation, and the protein was purified using Ni-NTA. After dialysis, the concentration and purity of the protein were determined.
The reaction mixture was incubated in a metal bath at 25°C for 3 h. The reaction was terminated by adding 1% SDS, and the amount of ADP generated was detected by HPLC. IC50 values were calculated using GraphPad software.

[4] = male, SD, rat, plasma, po, 3 mg/kg

T2 sequence (Q2M2I8 30-330): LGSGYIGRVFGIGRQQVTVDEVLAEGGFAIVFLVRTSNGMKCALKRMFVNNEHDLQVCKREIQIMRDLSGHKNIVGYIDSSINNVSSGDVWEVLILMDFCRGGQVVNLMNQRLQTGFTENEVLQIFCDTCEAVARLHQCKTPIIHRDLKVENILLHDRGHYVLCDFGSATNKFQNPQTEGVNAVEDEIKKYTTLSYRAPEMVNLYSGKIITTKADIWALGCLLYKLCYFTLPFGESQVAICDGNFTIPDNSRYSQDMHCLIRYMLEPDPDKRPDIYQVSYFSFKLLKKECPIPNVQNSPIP
T1 sequence (Q2M2I8 whole entry): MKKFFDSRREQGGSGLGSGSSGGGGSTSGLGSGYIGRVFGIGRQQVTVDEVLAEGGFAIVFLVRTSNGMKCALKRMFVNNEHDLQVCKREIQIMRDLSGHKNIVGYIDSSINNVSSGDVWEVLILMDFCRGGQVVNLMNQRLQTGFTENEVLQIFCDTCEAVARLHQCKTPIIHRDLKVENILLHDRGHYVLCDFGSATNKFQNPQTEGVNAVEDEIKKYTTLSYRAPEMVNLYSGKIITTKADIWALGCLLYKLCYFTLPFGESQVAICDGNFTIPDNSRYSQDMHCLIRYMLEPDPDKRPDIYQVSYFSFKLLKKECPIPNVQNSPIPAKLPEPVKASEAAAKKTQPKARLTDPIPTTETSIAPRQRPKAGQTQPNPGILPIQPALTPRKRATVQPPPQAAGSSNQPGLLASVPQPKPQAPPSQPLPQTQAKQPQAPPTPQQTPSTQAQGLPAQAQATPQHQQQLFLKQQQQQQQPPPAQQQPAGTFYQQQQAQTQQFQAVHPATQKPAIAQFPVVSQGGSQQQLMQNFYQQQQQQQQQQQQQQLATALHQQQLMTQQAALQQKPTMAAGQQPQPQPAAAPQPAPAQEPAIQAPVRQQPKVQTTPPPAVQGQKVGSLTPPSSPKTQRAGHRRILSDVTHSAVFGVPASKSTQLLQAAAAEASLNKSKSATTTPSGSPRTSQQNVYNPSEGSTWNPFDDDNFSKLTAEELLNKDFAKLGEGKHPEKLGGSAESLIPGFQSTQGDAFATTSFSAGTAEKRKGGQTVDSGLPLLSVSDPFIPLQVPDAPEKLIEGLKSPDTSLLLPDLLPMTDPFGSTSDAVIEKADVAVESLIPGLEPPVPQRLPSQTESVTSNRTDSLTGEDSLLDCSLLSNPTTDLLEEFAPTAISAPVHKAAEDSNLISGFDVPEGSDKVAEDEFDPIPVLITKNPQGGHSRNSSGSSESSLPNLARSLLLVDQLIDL

concentration at 6 h ([1]; brain, 0.5 mg/kg): 62.5 ng/mL and 688 ng/g
concentration at 6 h ([1]; brain, 1 mg/kg): 120 ng/mL and 1320 ng/g
Kp at 6 h ([1]; 0.5 mg/kg): 17.9
Kp at 6 h ([1]; 1 mg/kg): 17.6
concentration at 6 h ([1]; plasma, 0.5 mg/kg): 38.5 ng/mL
concentration at 6 h ([1]; plasma, 1 mg/kg): 75.3 ng/mL
in vivo exposure compared with the positive control ([3]; SD rats, versus BMS-986176): approximately four times
peak concentration (Cmax) compared with the positive control ([3]; SD rats, versus BMS-986176): approximately four times
AUC(0-inf) [3, 4]: 4130 ng·h/mL
AUC(0-t) [3, 4]: 4010 ng·h/mL
Cmax [3, 4]: 325 ng/mL
MRT inf [3, 4]: 10.9 h
MRT last [3, 4]: 8.09 h
Tmax [3, 4]: 3.1 h
half-life [3, 4]: 6.98 h
IC50 (AAK1): 10 to 100 nM
IC50 (AAK1 (30-330) protein): 86.3 nM
Structure (SMILES): CC(C)C[C@](C)(N)COc1ccc(-c2c[nH]c3ncc(F)cc23)nc1C(F)F [Compound 26, (S)-1-{[2-(difluoromethyl)-6-(5-fluoro-1H-pyrrolo[2,3-b]pyridin-3-yl)pyridin-3-yl]oxy}-2,4-dimethylpentan-2-amine]
MWT (g) After modeling ([2]; 0.5 mg/kg group, x±s, n=5): 6.97 ± 2.16 g
Pain threshold improvement rate 2h ([2]; 0.5 mg/kg single ig.): 50.87
MWT (g) 2h ([2]; 0.5 mg/kg single ig., x±s, n=5): 7.50 ± 2.37 g
Pain threshold improvement rate 3 h ([2]; 0.5 mg/kg single ig.): 54.93
MWT (g) 3 h ([2]; 0.5 mg/kg single ig., 3 h after administration, x±s, n=5): 9.63 ± 3.40 g
Pain threshold improvement rate 4h ([2]; 0.5 mg/kg single ig.): 35.29
MWT (g) 4 h ([2]; 0.5 mg/kg single ig., x±s, n=5): 6.23 ± 2.10 g
Pain threshold improvement rate 5 h ([2]; 0.5 mg/kg single ig.): 28.18
MWT (g) 5 h ([2]; 0.5 mg/kg single ig., x±s, n=5): 5.61 ± 3.00 g
Pain threshold improvement rate 6h ([2]; 0.5 mg/kg single ig.): 24.02
MWT (g) 6h ([2]; 0.5 mg/kg single ig., x±s, n=5): 4.82 ± 1.07 g
duration of analgesia ([2]; 0.5 mg/kg): ≤ 4 h
MWT (g) After modeling ([2]; 1 mg/kg group, x±s, n=5): 7.28 ± 2.09 g
Pain threshold improvement rate 2h ([2]; 1 mg/kg single ig.): 71.05
MWT (g) 2h ([2]; 1 mg/kg single ig., x±s, n=5): 12.72 ± 3.12 g
Pain threshold improvement rate 3 h ([2]; 1 mg/kg single ig.): 58.89
Pain threshold improvement rate 4h ([2]; 1 mg/kg single ig.): 59.53
MWT (g) 4 h ([2]; 1 mg/kg single ig., x±s, n=5): 9.96 ± 4.93 g
Pain threshold improvement rate 5 h ([2]; 1 mg/kg single ig.): 20.88
MWT (g) 5 h ([2]; 1 mg/kg single ig., x±s, n=5): 5.10 ± 1.55 g
Pain threshold improvement rate 6h ([2]; 1 mg/kg single ig.): 9.51
MWT (g) 6h ([2]; 1 mg/kg single ig., x±s, n=5): 4.05 ± 0.66 g
duration of analgesia ([2]; 1 mg/kg): ≤ 4 h
